Results from PubChem BioAssay (NCI).
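Tested at 5 concentrations; 48 h exposure; 96-well plates; endpoints linearly interpolated, else capped at highest concentration. Abbreviation: GI50, concentration required for 50% inhibition of growth. TGI: concentration producing complete growth inhibition.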

Assays:
Assay in all cases: NCI tumour cell line growth inhibition, 48 h
SF-268 CNS = tested on: SF-268 CNS
MDA-MB-468 breast = tested on: MDA-MB-468 breast
SF-295 CNS = tested on: SF-295 CNS
SNB-19 CNS = tested on: SNB-19 CNS
M14 melanoma = tested on: M14 melanoma
MALME-3M melanoma = tested on: MALME-3M melanoma
HOP-92 NSCLC = tested on: HOP-92 NSCLC
PC-3 prostate = tested on: PC-3 prostate
U251 CNS = tested on: U251 CNS
RXF 393 renal = tested on: RXF 393 renal
A498 renal = tested on: A498 renal
UO-31 renal = tested on: UO-31 renal
NCI/ADR-RES ovarian = tested on: NCI/ADR-RES ovarian
SNB-75 CNS = tested on: SNB-75 CNS
EKVX NSCLC = tested on: EKVX NSCLC
KM12 colon = tested on: KM12 colon
LOX IMVI melanoma = tested on: LOX IMVI melanoma
A549 NSCLC = tested on: A549 NSCLC
MOLT-4 leukemia = tested on: MOLT-4 leukemia
HL-60(TB) leukemia = tested on: HL-60(TB) leukemia
IGROV1 ovarian = tested on: IGROV1 ovarian
HCT-116 colon = tested on: HCT-116 colon
SK-MEL-2 melanoma = tested on: SK-MEL-2 melanoma
NCI-H226 lung = tested on: NCI-H226 lung
COLO 205 colon = tested on: COLO 205 colon
SW-620 colon = tested on: SW-620 colon
MDA-MB-231 breast = tested on: MDA-MB-231 breast
SF-539 CNS = tested on: SF-539 CNS
MCF7 breast = tested on: MCF7 breast
CCRF-CEM leukemia = tested on: CCRF-CEM leukemia
T-47D breast = tested on: T-47D breast
DU-145 prostate = tested on: DU-145 prostate
TK-10 renal = tested on: TK-10 renal
MDA-MB-435 = tested on: MDA-MB-435
OVCAR-5 ovarian = tested on: OVCAR-5 ovarian
HT29 colon = tested on: HT29 colon
RPMI-8226 leukemia = tested on: RPMI-8226 leukemia
786-0 renal = tested on: 786-0 renal
SK-MEL-5 melanoma = tested on: SK-MEL-5 melanoma
OVCAR-3 ovarian = tested on: OVCAR-3 ovarian
UACC-257 melanoma = tested on: UACC-257 melanoma
NCI-H460 lung = tested on: NCI-H460 lung
SK-OV-3 ovarian = tested on: SK-OV-3 ovarian
NCI-H23 lung = tested on: NCI-H23 lung
BT-549 breast = tested on: BT-549 breast
HS 578T breast = tested on: HS 578T breast
CAKI-1 renal = tested on: CAKI-1 renal
SK-MEL-28 melanoma = tested on: SK-MEL-28 melanoma
HOP-62 NSCLC = tested on: HOP-62 NSCLC
HCC-2998 colon = tested on: HCC-2998 colon
ACHN renal = tested on: ACHN renal
UACC-62 melanoma = tested on: UACC-62 melanoma
NCI-H522 lung = tested on: NCI-H522 lung
SN12C renal = tested on: SN12C renal
OVCAR-8 ovarian = tested on: OVCAR-8 ovarian
OVCAR-4 ovarian = tested on: OVCAR-4 ovarian

Work on `CCCCSc1nc(Nc2ccc(S(N)(=O)=O)cc2)c(C#N)c(-c2ccc(Cl)cc2)n1` yielded a GI50 (SF-268 CNS) of 5.64 µM, a TGI (SF-268 CNS) of 42.1 µM and a GI50 (MDA-MB-468 breast) of 14.5 µM. It also gave a TGI (MDA-MB-468 breast) of 36.1 µM, a GI50 (SF-295 CNS) of 1.82 µM and a TGI (SF-295 CNS) of 3.78 µM. The GI50 (SNB-19 CNS) was 3.65 µM, the TGI (SNB-19 CNS) was 15.7 µM and the GI50 (M14 melanoma) was 2.36 µM. The TGI (M14 melanoma) was 6.09 µM, the GI50 (MALME-3M melanoma) was 3.03 µM and the TGI (MALME-3M melanoma) was 11 µM. The GI50 (HOP-92 NSCLC) was 1.01 µM, the TGI (HOP-92 NSCLC) was 4.71 µM and the GI50 (PC-3 prostate) was 5.39 µM. For the same molecule, the TGI (PC-3 prostate) was 26 µM, the GI50 (U251 CNS) was 1.58 µM and the TGI (U251 CNS) was 3.28 µM. For the same molecule, the GI50 (RXF 393 renal) was 1.81 µM, the TGI (RXF 393 renal) was 5.12 µM and the GI50 (A498 renal) was 6.41 µM. For the same molecule, the TGI (A498 renal) was 27.8 µM, the GI50 (UO-31 renal) was 2 µM and the TGI (UO-31 renal) was 6.33 µM. It also gave a GI50 (NCI/ADR-RES ovarian) of 2.98 µM, a TGI (NCI/ADR-RES ovarian) of 9.58 µM and a GI50 (SNB-75 CNS) of 1.1 µM. The TGI (SNB-75 CNS) was 3.22 µM, the GI50 (EKVX NSCLC) was 3.51 µM and the TGI (EKVX NSCLC) was 19.7 µM. It also gave a GI50 (KM12 colon) of 6.26 µM, a TGI (KM12 colon) of 30.2 µM and a GI50 (LOX IMVI melanoma) of 1.72 µM. For the same molecule, the TGI (LOX IMVI melanoma) was 3.33 µM, the GI50 (A549 NSCLC) was 2.61 µM and the TGI (A549 NSCLC) was 9.81 µM. It also gave a GI50 (MOLT-4 leukemia) of 3.15 µM, a TGI (MOLT-4 leukemia) of 20.1 µM and a GI50 (HL-60(TB) leukemia) of 50.6 µM. For the same molecule, the TGI (HL-60(TB) leukemia) was over 100 µM, the GI50 (IGROV1 ovarian) was 5.79 µM and the TGI (IGROV1 ovarian) was 41.3 µM. The GI50 (HCT-116 colon) was 2 µM, the TGI (HCT-116 colon) was 4.35 µM and the GI50 (SK-MEL-2 melanoma) was 27.6 µM. For the same molecule, the TGI (SK-MEL-2 melanoma) was over 100 µM, the GI50 (NCI-H226 lung) was 2.29 µM and the TGI (NCI-H226 lung) was 6 µM. For the same molecule, the GI50 (COLO 205 colon) was 13.4 µM, the TGI (COLO 205 colon) was 42.9 µM and the GI50 (SW-620 colon) was 3.3 µM. The TGI (SW-620 colon) was 12.4 µM, the GI50 (MDA-MB-231 breast) was 2.14 µM and the TGI (MDA-MB-231 breast) was 5.3 µM. For the same molecule, the GI50 (SF-539 CNS) was 1.62 µM, the TGI (SF-539 CNS) was 3.23 µM and the GI50 (MCF7 breast) was 4.59 µM. The TGI (MCF7 breast) was over 100 µM, the GI50 (CCRF-CEM leukemia) was 7.69 µM and the TGI (CCRF-CEM leukemia) was over 100 µM. The GI50 (T-47D breast) was 19.9 µM, the TGI (T-47D breast) was over 100 µM and the GI50 (DU-145 prostate) was 4.95 µM. It also gave a TGI (DU-145 prostate) of 18 µM, a GI50 (TK-10 renal) of 2.32 µM and a TGI (TK-10 renal) of 6.86 µM. It also gave a GI50 (MDA-MB-435) of 4.01 µM, a TGI (MDA-MB-435) of over 100 µM and a GI50 (OVCAR-5 ovarian) of 4.77 µM. It also gave a TGI (OVCAR-5 ovarian) of 22.9 µM, a GI50 (HT29 colon) of 2.73 µM and a TGI (HT29 colon) of 9.84 µM. It also gave a GI50 (RPMI-8226 leukemia) of 5.17 µM, a TGI (RPMI-8226 leukemia) of over 100 µM and a GI50 (786-0 renal) of 1.98 µM. It also gave a TGI (786-0 renal) of 5.11 µM, a GI50 (SK-MEL-5 melanoma) of 8.46 µM and a TGI (SK-MEL-5 melanoma) of 33.5 µM. For the same molecule, the GI50 (OVCAR-3 ovarian) was 2.23 µM, the TGI (OVCAR-3 ovarian) was 4.91 µM and the GI50 (UACC-257 melanoma) was 14.9 µM. The TGI (UACC-257 melanoma) was over 100 µM, the GI50 (NCI-H460 lung) was 2.08 µM and the TGI (NCI-H460 lung) was 4.66 µM. It also gave a GI50 (SK-OV-3 ovarian) of 3.63 µM, a TGI (SK-OV-3 ovarian) of 14.1 µM and a GI50 (NCI-H23 lung) of 3.43 µM. For the same molecule, the TGI (NCI-H23 lung) was 12.4 µM, the GI50 (BT-549 breast) was 17.9 µM and the TGI (BT-549 breast) was 62 µM. It also gave a GI50 (HS 578T breast) of 2.46 µM, a TGI (HS 578T breast) of 8.71 µM and a GI50 (CAKI-1 renal) of 1.94 µM. The TGI (CAKI-1 renal) was 4.8 µM, the GI50 (SK-MEL-28 melanoma) was 5.98 µM and the TGI (SK-MEL-28 melanoma) was 31.1 µM. For the same molecule, the GI50 (HOP-62 NSCLC) was 2.18 µM, the TGI (HOP-62 NSCLC) was 4.97 µM and the GI50 (HCC-2998 colon) was 6.56 µM. For the same molecule, the TGI (HCC-2998 colon) was 78.3 µM, the GI50 (ACHN renal) was 1.88 µM and the TGI (ACHN renal) was 3.67 µM. For the same molecule, the GI50 (UACC-62 melanoma) was 2.8 µM, the TGI (UACC-62 melanoma) was 8.98 µM and the GI50 (NCI-H522 lung) was 10.6 µM. For the same molecule, the TGI (NCI-H522 lung) was 70.5 µM, the GI50 (SN12C renal) was 2.08 µM and the TGI (SN12C renal) was 8.71 µM. The GI50 (OVCAR-8 ovarian) was 2.08 µM, the TGI (OVCAR-8 ovarian) was 4.93 µM and the GI50 (OVCAR-4 ovarian) was 1.83 µM. It also gave a TGI (OVCAR-4 ovarian) of 3.89 µM.
